{"source": "ChEMBL document CHEMBL5678818", "about": "“Discovery of potent SOS1 inhibitors that block RAS activation via disruption of the RAS-SOS1 interaction” (Proc Natl Acad Sci U S A, 2019)", "key": {"[1]": {"biological_target": "Misshapen-like kinase 1 (Homo sapiens) (UniProt Q8N4C8)", "sequence (Q8N4C8 whole entry, looked up)": "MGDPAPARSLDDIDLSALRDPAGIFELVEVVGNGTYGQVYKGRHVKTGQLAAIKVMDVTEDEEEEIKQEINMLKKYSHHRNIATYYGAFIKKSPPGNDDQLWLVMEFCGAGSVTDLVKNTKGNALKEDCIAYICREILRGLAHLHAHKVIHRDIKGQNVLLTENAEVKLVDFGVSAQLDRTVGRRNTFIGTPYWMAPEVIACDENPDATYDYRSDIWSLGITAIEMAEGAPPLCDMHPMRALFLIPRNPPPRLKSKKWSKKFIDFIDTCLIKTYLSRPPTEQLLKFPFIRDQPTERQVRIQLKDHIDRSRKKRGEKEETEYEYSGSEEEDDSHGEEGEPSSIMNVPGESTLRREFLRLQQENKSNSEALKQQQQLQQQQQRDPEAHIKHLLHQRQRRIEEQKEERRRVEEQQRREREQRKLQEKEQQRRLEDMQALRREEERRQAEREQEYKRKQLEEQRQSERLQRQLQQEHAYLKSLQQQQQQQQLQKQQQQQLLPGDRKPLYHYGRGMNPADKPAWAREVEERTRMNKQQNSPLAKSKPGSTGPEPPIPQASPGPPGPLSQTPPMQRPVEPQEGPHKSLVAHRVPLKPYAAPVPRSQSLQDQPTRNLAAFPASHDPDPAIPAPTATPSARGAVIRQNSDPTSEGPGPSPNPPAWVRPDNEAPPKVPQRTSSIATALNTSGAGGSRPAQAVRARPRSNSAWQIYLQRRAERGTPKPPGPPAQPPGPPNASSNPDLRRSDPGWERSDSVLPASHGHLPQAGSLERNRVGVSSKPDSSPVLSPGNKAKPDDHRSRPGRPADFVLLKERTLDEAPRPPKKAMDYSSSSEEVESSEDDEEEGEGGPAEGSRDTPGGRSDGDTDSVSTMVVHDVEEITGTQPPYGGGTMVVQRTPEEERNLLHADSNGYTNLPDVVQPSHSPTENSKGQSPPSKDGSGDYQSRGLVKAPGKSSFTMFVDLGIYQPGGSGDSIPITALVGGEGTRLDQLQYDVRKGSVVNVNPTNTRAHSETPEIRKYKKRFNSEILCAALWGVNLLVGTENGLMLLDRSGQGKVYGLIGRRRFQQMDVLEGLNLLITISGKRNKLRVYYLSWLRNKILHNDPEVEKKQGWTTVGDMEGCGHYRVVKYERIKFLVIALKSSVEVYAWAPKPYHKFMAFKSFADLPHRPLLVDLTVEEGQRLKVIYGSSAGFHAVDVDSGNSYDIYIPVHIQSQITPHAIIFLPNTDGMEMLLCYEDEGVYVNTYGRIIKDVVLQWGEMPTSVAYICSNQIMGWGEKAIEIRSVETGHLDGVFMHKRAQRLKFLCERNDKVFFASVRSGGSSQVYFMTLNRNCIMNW", "test": "Inhibition of MINK (unknown origin) assessed as residual activity at 1000 nM by KINOMEscan analysis relative to control"}, "[2]": {"biological_target": "T1, MAP kinase-activated protein kinase 5 (Homo sapiens) (UniProt Q8IW41)", "T1 sequence (whole entry)": "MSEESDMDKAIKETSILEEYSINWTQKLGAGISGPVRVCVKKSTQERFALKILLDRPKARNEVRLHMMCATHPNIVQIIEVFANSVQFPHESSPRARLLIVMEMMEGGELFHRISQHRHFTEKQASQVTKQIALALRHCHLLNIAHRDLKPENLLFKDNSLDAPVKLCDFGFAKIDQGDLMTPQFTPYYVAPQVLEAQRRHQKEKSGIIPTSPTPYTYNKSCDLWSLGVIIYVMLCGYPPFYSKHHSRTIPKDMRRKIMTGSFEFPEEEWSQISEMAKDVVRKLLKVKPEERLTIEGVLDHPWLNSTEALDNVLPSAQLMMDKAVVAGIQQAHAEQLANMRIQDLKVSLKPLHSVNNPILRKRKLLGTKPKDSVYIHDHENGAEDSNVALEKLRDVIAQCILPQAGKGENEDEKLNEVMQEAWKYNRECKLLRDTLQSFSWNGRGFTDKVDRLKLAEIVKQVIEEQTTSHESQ", "test": "Inhibition of MAPKAPK5 (unknown origin) assessed as residual activity at 1000 nM by KINOMEscan analysis relative to control"}, "[3]": {"biological_target": "Interleukin-1 receptor-associated kinase 1 (Homo sapiens) (UniProt P51617)", "test": "Inhibition of IRAK1 (unknown origin) assessed as residual activity at 1000 nM by KINOMEscan analysis relative to control"}, "[4]": {"biological_target": "T2, Activin receptor type-1B (Homo sapiens) (UniProt P36896)", "T2 sequence (whole entry)": "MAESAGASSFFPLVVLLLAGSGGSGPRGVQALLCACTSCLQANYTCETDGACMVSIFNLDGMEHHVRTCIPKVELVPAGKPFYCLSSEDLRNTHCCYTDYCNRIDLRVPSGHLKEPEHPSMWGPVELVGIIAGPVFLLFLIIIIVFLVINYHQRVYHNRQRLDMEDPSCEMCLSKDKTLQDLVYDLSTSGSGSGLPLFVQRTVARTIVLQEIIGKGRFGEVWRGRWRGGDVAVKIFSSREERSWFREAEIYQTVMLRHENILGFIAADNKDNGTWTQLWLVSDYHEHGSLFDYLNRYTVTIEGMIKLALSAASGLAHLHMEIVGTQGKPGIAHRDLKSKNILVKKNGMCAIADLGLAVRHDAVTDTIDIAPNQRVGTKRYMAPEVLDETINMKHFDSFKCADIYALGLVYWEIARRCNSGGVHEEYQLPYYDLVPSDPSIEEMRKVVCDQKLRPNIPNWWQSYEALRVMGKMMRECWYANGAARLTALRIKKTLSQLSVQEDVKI", "test": "Inhibition of ACVR1B (unknown origin) assessed as residual activity at 1000 nM by KINOMEscan analysis relative to control"}, "[5]": {"biological_target": "STE20-like serine/threonine-protein kinase (Homo sapiens) (UniProt Q9H2G2)", "sequence (Q9H2G2 whole entry, looked up)": "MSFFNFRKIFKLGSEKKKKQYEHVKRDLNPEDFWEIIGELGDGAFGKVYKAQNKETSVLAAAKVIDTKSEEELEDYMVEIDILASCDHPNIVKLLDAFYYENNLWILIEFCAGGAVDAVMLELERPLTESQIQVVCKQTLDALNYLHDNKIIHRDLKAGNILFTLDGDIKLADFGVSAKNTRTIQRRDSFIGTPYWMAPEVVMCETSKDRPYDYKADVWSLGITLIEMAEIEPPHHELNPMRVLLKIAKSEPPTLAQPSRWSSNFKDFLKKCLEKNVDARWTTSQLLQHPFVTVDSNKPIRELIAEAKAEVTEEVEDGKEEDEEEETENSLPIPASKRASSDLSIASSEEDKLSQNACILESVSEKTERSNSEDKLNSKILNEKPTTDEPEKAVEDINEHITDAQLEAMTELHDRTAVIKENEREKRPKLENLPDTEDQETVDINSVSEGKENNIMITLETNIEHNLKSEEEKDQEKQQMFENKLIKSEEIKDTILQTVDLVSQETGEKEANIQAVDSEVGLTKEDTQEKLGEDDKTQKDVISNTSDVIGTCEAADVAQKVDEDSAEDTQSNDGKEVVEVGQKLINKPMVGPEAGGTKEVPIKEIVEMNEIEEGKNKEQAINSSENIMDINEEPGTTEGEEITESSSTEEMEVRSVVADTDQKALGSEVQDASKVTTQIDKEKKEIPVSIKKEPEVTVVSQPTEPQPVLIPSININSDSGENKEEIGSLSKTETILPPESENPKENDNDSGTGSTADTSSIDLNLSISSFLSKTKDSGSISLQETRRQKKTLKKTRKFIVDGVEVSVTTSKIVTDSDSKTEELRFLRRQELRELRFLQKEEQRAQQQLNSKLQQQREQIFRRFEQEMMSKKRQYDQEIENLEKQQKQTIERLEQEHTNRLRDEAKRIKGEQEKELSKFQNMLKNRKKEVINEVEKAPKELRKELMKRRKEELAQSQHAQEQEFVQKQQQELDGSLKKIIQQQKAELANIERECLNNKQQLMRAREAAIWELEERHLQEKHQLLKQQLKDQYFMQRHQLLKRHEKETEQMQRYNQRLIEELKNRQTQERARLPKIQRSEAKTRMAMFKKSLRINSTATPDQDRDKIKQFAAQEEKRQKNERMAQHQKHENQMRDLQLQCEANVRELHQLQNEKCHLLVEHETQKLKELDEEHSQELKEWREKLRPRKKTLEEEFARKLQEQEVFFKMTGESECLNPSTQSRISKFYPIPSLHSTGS", "test": "Inhibition of SLK (unknown origin) assessed as residual activity at 1000 nM by KINOMEscan analysis relative to control"}, "[6]": {"biological_target": "Macrophage-stimulating protein receptor (Homo sapiens) (UniProt Q04912)", "test": "Inhibition of MST1R (unknown origin) assessed as residual activity at 1000 nM by KINOMEscan analysis relative to control"}, "[7]": {"test_system": "Tyrosine-protein kinase ABL1 (Homo sapiens), P00519 [Q252H]", "test": "Inhibition of phosphorylated ABL1 Q252H mutant (unknown origin) assessed as residual activity at 1000 nM by KINOMEscan analysis relative to control"}, "[8]": {"biological_target": "T3, Serine/threonine-protein kinase ULK3 (Homo sapiens) (UniProt Q6PHR2)", "T3 sequence (whole entry)": "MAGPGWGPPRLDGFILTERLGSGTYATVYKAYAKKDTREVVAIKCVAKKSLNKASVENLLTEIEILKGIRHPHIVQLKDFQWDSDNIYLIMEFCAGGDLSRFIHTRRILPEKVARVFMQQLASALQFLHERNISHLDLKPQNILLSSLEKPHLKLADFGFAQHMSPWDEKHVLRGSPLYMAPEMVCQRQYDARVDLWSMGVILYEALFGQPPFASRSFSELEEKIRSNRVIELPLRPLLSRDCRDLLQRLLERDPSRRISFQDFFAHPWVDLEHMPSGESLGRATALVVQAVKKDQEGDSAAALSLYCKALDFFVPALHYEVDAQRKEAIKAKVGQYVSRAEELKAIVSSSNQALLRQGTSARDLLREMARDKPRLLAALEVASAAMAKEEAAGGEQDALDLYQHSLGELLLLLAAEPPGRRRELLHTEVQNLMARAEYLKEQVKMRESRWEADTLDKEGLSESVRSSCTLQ", "test": "Inhibition of ULK3 (unknown origin) assessed as residual activity at 1000 nM by KINOMEscan analysis relative to control"}, "[9]": {"biological_target": "Serine/threonine-protein kinase N1 (Homo sapiens) (UniProt Q16512)", "sequence (Q16512 2-942 limits assumed)": "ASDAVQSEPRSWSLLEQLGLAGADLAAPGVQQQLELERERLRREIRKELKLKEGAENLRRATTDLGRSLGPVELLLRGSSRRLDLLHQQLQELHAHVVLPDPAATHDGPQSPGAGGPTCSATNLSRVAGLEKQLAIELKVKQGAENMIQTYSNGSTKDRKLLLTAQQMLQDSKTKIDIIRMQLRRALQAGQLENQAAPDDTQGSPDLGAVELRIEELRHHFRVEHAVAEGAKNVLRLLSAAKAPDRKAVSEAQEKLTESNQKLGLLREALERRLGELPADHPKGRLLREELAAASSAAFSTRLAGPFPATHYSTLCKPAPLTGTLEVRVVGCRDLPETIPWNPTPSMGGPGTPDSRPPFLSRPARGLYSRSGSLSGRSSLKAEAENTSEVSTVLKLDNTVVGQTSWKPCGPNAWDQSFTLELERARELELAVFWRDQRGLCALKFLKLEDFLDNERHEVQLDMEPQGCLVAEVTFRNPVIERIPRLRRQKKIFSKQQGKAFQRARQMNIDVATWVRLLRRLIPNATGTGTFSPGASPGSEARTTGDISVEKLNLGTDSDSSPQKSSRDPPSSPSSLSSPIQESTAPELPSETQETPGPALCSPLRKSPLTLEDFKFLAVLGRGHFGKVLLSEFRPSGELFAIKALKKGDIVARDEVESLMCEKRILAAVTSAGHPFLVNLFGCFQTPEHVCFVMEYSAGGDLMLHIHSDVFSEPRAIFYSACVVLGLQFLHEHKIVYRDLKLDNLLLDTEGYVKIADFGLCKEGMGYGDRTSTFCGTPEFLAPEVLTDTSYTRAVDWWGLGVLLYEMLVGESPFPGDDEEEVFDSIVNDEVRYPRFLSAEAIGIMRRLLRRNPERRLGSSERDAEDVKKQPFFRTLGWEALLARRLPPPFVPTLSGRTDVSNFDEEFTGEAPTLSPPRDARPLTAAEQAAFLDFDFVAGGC", "test": "Inhibition of PKN1 (unknown origin) assessed as residual activity at 1000 nM by KINOMEscan analysis relative to control"}, "[10]": {"biological_target": "Mitogen-activated protein kinase kinase kinase 20 (Homo sapiens) (UniProt Q9NYL2)", "sequence (Q9NYL2 2-800 limits assumed)": "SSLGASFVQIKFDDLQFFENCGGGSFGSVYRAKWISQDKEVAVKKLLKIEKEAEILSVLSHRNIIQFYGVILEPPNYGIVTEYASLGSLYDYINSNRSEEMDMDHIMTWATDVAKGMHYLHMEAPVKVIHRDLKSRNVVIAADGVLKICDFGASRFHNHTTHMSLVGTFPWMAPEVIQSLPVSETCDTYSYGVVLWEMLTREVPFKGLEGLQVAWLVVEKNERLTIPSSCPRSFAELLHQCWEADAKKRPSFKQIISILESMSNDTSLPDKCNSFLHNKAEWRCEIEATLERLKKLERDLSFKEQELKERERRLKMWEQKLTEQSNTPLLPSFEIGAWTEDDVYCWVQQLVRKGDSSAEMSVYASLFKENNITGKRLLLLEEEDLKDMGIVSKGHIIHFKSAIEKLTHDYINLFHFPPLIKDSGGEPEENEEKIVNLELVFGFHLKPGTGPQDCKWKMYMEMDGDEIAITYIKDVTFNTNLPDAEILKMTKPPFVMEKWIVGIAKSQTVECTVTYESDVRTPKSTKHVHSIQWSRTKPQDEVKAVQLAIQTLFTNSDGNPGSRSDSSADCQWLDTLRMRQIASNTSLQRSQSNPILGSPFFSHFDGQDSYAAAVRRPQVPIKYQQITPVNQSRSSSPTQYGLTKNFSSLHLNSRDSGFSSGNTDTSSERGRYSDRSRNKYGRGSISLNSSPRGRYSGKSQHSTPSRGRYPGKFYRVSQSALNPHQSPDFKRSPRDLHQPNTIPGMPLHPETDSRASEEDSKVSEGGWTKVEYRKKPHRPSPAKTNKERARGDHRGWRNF", "test": "Inhibition of ZAK (unknown origin) assessed as residual activity at 1000 nM by KINOMEscan analysis relative to control"}, "[11]": {"biological_target": "Serine/threonine-protein kinase tousled-like 2 (Homo sapiens) (UniProt Q86UE8)", "test": "Inhibition of TLK2 (unknown origin) assessed as residual activity at 1000 nM by KINOMEscan analysis relative to control"}, "[12]": {"test_system": "Receptor-type tyrosine-protein kinase FLT3 (Homo sapiens), P36888 [N841I]", "test": "Inhibition of FLT3 N841I mutant (unknown origin) assessed as residual activity at 1000 nM by KINOMEscan analysis relative to control"}, "[13]": {"biological_target": "Receptor-interacting serine/threonine-protein kinase 2 (Homo sapiens) (UniProt O43353)", "sequence (O43353 whole entry)": "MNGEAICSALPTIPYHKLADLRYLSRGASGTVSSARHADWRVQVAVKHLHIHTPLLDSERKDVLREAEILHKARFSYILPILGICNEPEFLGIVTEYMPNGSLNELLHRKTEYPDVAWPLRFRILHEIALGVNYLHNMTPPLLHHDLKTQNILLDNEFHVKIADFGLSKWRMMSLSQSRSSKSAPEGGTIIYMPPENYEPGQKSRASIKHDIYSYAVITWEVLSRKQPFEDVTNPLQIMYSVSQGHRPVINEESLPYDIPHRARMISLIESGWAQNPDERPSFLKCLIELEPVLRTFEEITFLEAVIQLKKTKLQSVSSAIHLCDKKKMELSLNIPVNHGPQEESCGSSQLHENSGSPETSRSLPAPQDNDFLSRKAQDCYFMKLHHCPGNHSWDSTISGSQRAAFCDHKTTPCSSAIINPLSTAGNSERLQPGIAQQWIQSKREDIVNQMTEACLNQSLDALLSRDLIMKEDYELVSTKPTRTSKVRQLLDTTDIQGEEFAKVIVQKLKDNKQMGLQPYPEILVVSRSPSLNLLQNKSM", "test": "Inhibition of RIPK2 (unknown origin) assessed as residual activity at 1000 nM by KINOMEscan analysis relative to control"}}, "data": [{"compound": "COc1cc2nc(C)nc(N[C@H](C)c3cccc(-c4cn[nH]c4)c3)c2cc1OC", "values": [{"measurement": "Activity", "setting": "[1]", "result": 100, "unit": "%"}, {"measurement": "Activity", "setting": "[2]", "result": 85, "unit": "%"}, {"measurement": "Activity", "setting": "[3]", "result": 68, "unit": "%"}, {"measurement": "Activity", "setting": "[4]", "result": 100, "unit": "%"}, {"measurement": "Activity", "setting": "[5]", "result": 61, "unit": "%"}, {"measurement": "Activity", "setting": "[6]", "result": 75, "unit": "%"}, {"measurement": "Activity", "setting": "[7]", "result": 95, "unit": "%"}, {"measurement": "Activity", "setting": "[8]", "result": 82, "unit": "%"}, {"measurement": "Activity", "setting": "[9]", "result": 100, "unit": "%"}, {"measurement": "Activity", "setting": "[10]", "result": 89, "unit": "%"}, {"measurement": "Activity", "setting": "[11]", "result": 83, "unit": "%"}, {"measurement": "Activity", "setting": "[12]", "result": 94, "unit": "%"}, {"measurement": "Activity", "setting": "[13]", "result": 73, "unit": "%"}]}, {"compound": "COc1cc2ncnc(N[C@H](C)c3cccc4ccccc34)c2cc1OC", "values": [{"measurement": "Activity", "setting": "[1]", "result": 74, "unit": "%"}, {"measurement": "Activity", "setting": "[2]", "result": 87, "unit": "%"}, {"measurement": "Activity", "setting": "[3]", "result": 85, "unit": "%"}, {"measurement": "Activity", "setting": "[4]", "result": 100, "unit": "%"}, {"measurement": "Activity", "setting": "[5]", "result": 84, "unit": "%"}, {"measurement": "Activity", "setting": "[6]", "result": 100, "unit": "%"}, {"measurement": "Activity", "setting": "[7]", "result": 92, "unit": "%"}, {"measurement": "Activity", "setting": "[8]", "result": 99, "unit": "%"}, {"measurement": "Activity", "setting": "[9]", "result": 97, "unit": "%"}, {"measurement": "Activity", "setting": "[10]", "result": 89, "unit": "%"}, {"measurement": "Activity", "setting": "[11]", "result": 77, "unit": "%"}, {"measurement": "Activity", "setting": "[12]", "result": 100, "unit": "%"}, {"measurement": "Activity", "setting": "[13]", "result": 99, "unit": "%"}]}]}
